Values quoted from earlier work as cited in publication PMC10017685 (Nature Communications, 2023).

Test system: human erythrocytes
Set-up: method as in DBAASP
Settings: toxicity class label 1 or 0, meaning of the labels not given; DBAASP HC50 data, human erythrocytes; ref DBAASP; cited from earlier work

Row | Sequence | Class (dedicated toxicity dataset used for toxicity classifier evaluation)
1 | AAKKGCWTVSIPPKPCF [DBAASP_12530] | 0
2 | AFALIAGALYRIFHRR [DBAASP_16955] | 0
3 | AIGSILGALAKGLPTLISWIKNR [DBAASP_2156] | 1
4 | AILTTLANWARKFL [DBAASP_3561] | 0
5 | AKRHHGYKRKFH [DBAASP_732] | 0
6 | ALFKTMLKKLGTMAL [DBAASP_10098] | 0
7 | ALHKTMLKKLGTMAL [DBAASP_10090] | 0
8 | ALLKTMLKKLGTMAL [DBAASP_10104] | 0
9 | ALWKSLLKNVGKA [DBAASP_11806] | 0
10 | ALWKTLLKKVLKAAA [DBAASP_7356] | 1
11 | ALWKTMLKKLGT [DBAASP_10094] | 0
12 | ALWKTMLKKLGTM [DBAASP_10093] | 0
13 | ALWKTMLKKLGTMA [DBAASP_10092] | 0
14 | ALWKTMLKKLGTMAL [DBAASP_10095] | 0
15 | ALWKTMLKKLGTMALHAGK [DBAASP_10088] | 0
16 | ALYKTMLKKLGTMAL [DBAASP_10103] | 0
17 | AVDLAKIANKVLSSLF [DBAASP_2207] | 0
18 | CAKAKAKAGSGAKAKAKAC [DBAASP_351] | 0
19 | CFKFKFKFGSGFKFKFKFC [DBAASP_352] | 0
20 | CVKVKVKVGSGVKVKVKVC [DBAASP_347] | 0
21 | CVKVQVKVGSGVKVQVKVC [DBAASP_350] | 0
22 | CVKVRVKVGSGVKVRVKVC [DBAASP_349] | 0
23 | CVKVSVKVGSGVKVSVKVC [DBAASP_348] | 0
24 | CWKWKWKWGSGWKWKWKWC [DBAASP_353] | 0
25 | DIFGAIWPLALGALKNLIK [DBAASP_9407] | 1

Row | Sequence | Class (dedicated toxicity dataset used for toxicity classifier evaluation)
26 | DSHAKRHHGYKRKFHEKHHSHRGY [DBAASP_15] | 0
27 | FFFFKKKKK [DBAASP_15834] | 1
28 | FFFLSRIF [DBAASP_3232] | 0
29 | FFGKVLKLIRKIF [DBAASP_2255] | 1
30 | FFGSVLKLIPKIL [DBAASP_5799] | 0
31 | FFGWLIKGAIHAGKAIHGLIHRRRH [DBAASP_3173] | 1
32 | FFHHAFRGIVHVGKTIHRLVTG [DBAASP_9003] | 0
33 | FFHHFARGIVHVGKTIHRLVTG [DBAASP_9009] | 0
34 | FFHHIFRGIVHIGKTIHRLVTG [DBAASP_9010] | 1
35 | FFHHIFRGIVHVGKKIHRLVKG [DBAASP_9984] | 0
36 | FFHHIFRGIVHVGKKIHRLVTG [DBAASP_9986] | 0
37 | FFHHIFRGIVHVGKTIHRLVTG [DBAASP_4867] | 1
38 | FFHHIFRGIVHVGKTVHRLVTG [DBAASP_9008] | 0
39 | FFHHIFRGVVHVGKTIHRLVTG [DBAASP_9007] | 0
40 | FFHHVFRGIVHVGKTIHRLVTG [DBAASP_9006] | 0
41 | FFLLSLIPSAISAIKKI [DBAASP_8438] | 0
42 | FFPGIIKVAGAILPTAICAITKRC [DBAASP_10252] | 0
43 | FFPIIAGMAAKLIPSLFCKITKKC [DBAASP_4209] | 1
44 | FFPIIAGMAAKVICAITKKC [DBAASP_4211] | 1
45 | FFPIVGKLLSGLF [DBAASP_1882] | 0
46 | FFPLIFGALSSILPKIL [DBAASP_18209] | 1
47 | FFRLLFHGVHHGGGYLNAA [DBAASP_1428] | 0
48 | FFRLLFHGVHHVGKIKPRA [DBAASP_1429] | 0
49 | FIGAIARLLSKIF [DBAASP_1465] | 1
50 | FIGALLRPALKLLAGK [DBAASP_5719] | 0

Row | Sequence | Class (dedicated toxicity dataset used for toxicity classifier evaluation)
51 | FIGMIPGLIGGLISAIK [DBAASP_9867] | 1
52 | FIHHAAGGLFSAGKAIHRLIRRRRR [DBAASP_17363] | 0
53 | FIHHIIGGLFSAGKAIHRLIRRRRR [DBAASP_5623] | 1
54 | FIHHIIGGLFSVGKHIHSLIHGH [DBAASP_12673] | 1
55 | FIHHIIGGLFSVGKHIHSLIHRRRR [DBAASP_17379] | 1
56 | FKRIVQRIKDFLR [DBAASP_3393] | 0
57 | FLAGLIGGLAKML [DBAASP_1978] | 0
58 | FLGAIAGVAAKFLPKVFCFITKKC [DBAASP_6167] | 1
59 | FLGALFKVASKLVPAAICSISKKC [DBAASP_15602] | 0
60 | FLGALIKGAIHGGRFIHGMIQNHH [DBAASP_1413] | 0
61 | FLGALLKIGAKVLPSVLCGIFKKC [DBAASP_14203] | 1
62 | FLGLLFHGVHHVGKWIHGLIHGHH [DBAASP_1001] | 1
63 | FLGSIVGALASALPSLISKIRN [DBAASP_2209] | 1
64 | FLGSLFSIGSKLLPGVIKLFQRKKQ [DBAASP_17526] | 1
65 | FLIGMTQGLICLITRKC [DBAASP_1477] | 0
66 | FLKGIKGMLGKLF [DBAASP_9109] | 0
67 | FLKGIKGMLGKLL [DBAASP_9112] | 0
68 | FLKGIVGKLGKLF [DBAASP_9110] | 0
69 | FLKGIVGMLGKLF [DBAASP_8203] | 1
70 | FLKGIVGMLGKLL [DBAASP_9111] | 0
71 | FLKGIVGMLGKLW [DBAASP_9113] | 1
72 | FLKWALKVAAK [DBAASP_16466] | 0
73 | FLKWALKWAAK [DBAASP_16467] | 0
74 | FLPAALAGIGGILGKLF [DBAASP_9469] | 0
75 | FLPAIAGLAAKFLPKIFCAITKKC [DBAASP_13908] | 1

Row | Sequence | Class (dedicated toxicity dataset used for toxicity classifier evaluation)
76 | FLPAIAGVAAKFLPKIFCAITKKC [DBAASP_13909] | 0
77 | FLPAIVGAAAKFLPKIFCAISKKC [DBAASP_4213] | 1
78 | FLPAVLKVAAHILPTAICAISRRC [DBAASP_5694] | 0
79 | FLPFLKSILGKIL [DBAASP_13349] | 0
80 | FLPFLLSALPKVFCFFSKKC [DBAASP_6702] | 1
81 | FLPFVGNLLKGLL [DBAASP_1881] | 0
82 | FLPGILKVAAK [DBAASP_16464] | 0
83 | FLPGILKVAANVVPGVI [DBAASP_16463] | 0
84 | FLPGILKVAANVVPGVICAITKKC [DBAASP_16462] | 0
85 | FLPGLIKAAVGVGSTILCKITKKC [DBAASP_8373] | 0
86 | FLPIIAGAAAKVVEKIFCAISKKC [DBAASP_4217] | 1
87 | FLPIIAGIAAKFLPKIFCTISKKC [DBAASP_4214] | 1
88 | FLPIIAGMAAKVICAITKKC [DBAASP_4210] | 1
89 | FLPIIGQLLSGLL [DBAASP_4222] | 0
90 | FLPILAGLAAKIVPKLFCLATKKC [DBAASP_2201] | 1
91 | FLPILAGLAAKLVPKVFCSITKKC [DBAASP_4220] | 1
92 | FLPILAGLAANILPKVFCSITKKC [DBAASP_4221] | 1
93 | FLPILASLAAKFGPKLFSLVTKKS [DBAASP_4418] | 0
94 | FLPILASLAAKLGPKLFCLVTKKC [DBAASP_3537] | 1
95 | FLPIVAGLAANFLPKIVCKITKKC [DBAASP_1889] | 1
96 | FLPIVGKLLSGLF [DBAASP_1883] | 0
97 | FLPIVGRLISGIL [DBAASP_13347] | 0
98 | FLPIVGRLISGLL [DBAASP_5287] | 0
